Laboratory results as given in patent publication US6525001B1, “Substituted pyrimidine and pyridine herbicides” (Mid-American Commercialization Corporation, priority 1997, dated 2003).

Columns and labels:
Assay type in all cases: in vivo
Design in all cases: key: 0 is no effect; 10 is complete control
[1] = tested on: giant foxtail (Setaria faberii); test: Test B pre-/postemergence
Method in brief: (§1)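 Seeds were planted and sprayed preemergence, while plants at 2 to 18 cm (1- to 4-leaf stage) were sprayed postemergence at the same time, with test chemical in a non-phytotoxic solvent mixture containing surfactant. After twelve to sixteen days in a greenhouse, injury was rated visually against untreated controls on a 0–10 scale.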

[2] = tested on: purple nutsedge (Cyperus rotundus); test: Test B pre-/postemergence
Method in brief: as §1

[3] = tested on: bedstraw (Galium aparine); test: Test B pre-/postemergence
Method in brief: as §1

corn (Zea mays) = test: Test B pre-/postemergence
Method in brief: as §1

rape (Brassica napus) = test: Test B pre-/postemergence
Method in brief: as §1

[4] = tested on: wheat (Triticum aestivum); test: Test B pre-/postemergence
Method in brief: as §1

[5] = tested on: velvetleaf (Abutilon theophrasti); test: Test B pre-/postemergence
Method in brief: as §1

soybean (Glycine max) = test: Test B pre-/postemergence
Method in brief: as §1

[6] = tested on: sugar beet (Beta vulgaris); test: Test B pre-/postemergence
Method in brief: as §1

[7] = tested on: crabgrass (Digitaria sanguinalis); test: Test B pre-/postemergence
Method in brief: as §1

wild oat (Avena fatua) = test: Test B pre-/postemergence
Method in brief: as §1

[8] = tested on: bamyardgrass (Echinochloa crus-galli); test: Test B flood test; details: for Plant response rating, Barnyardgrass: Postemergence (flood test species)
Method in brief: (§2)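 Plants were grown to the 2-leaf stage before treatment with test chemical, then held in a greenhouse for twelve to sixteen days. Injury was visually rated against untreated controls on a 0–10 scale, where 0 is no effect and 10 is complete control.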

rice (Oryza sativa) = test: Test B flood test; details: for Plant response rating, Rice: Postemergence (flood test species)
Method in brief: as §2

[9] = tested on: duck salad (Heteranthera limosa); test: Test B flood test; details: for Plant response rating, Ducksalad: Postemergence (flood test species)
Method in brief: as §2

[10] = tested on: smallflower flatsedge (Cyperus difformis); test: Test B flood test; details: for Plant response rating, S. Flatsedge: Postemergence (flood test species)
Method in brief: as §2

[11] = Preemergence, Rate 62 g/ha, scale of 0 to 10
[12] = Rate 62 g/ha, Postemergence (flood test)
[13] = Rate 125 g/ha, Postemergence section (flood test species)

For `Cc1cnc(-c2ccc(C(F)(F)F)cc2)nc1Cn1ccc(C#N)n1` [Compound 53], the “Plant response rating, Giant foxtail” value [1, 11] was 1, the “Giant foxtail plant response rating” value ([1]; Rate 62 g/ha, Postemergence) was 1 and the “Giant foxtail plant response rating” value ([1]; Rate 125 g/ha, Postemergence) was 1. For the same compound, the “Plant response rating, Giant foxtail” value ([1]; Rate 125 g/ha, Preemergence) was 5, the “Plant response rating, Giant foxtail” value ([1]; Rate 250 g/ha, Postemergence) was 1 and the “Plant response rating, Giant foxtail” value ([1]; Rate 250 g/ha, Preemergence) was 6. For the same compound, the “Plant response rating, Giant foxtail” value ([1]; Rate 500 g/ha, Postemergence) was 2, the “Plant response rating, Giant foxtail” value ([1]; Rate 500 g/ha, Preemergence) was 6 and the “Plant response rating, Nutsedge” value [2, 11] was 0. For the same compound, the “Nutsedge plant response rating” value ([2]; Rate 62 g/ha, Postemergence) was 0, the “Nutsedge plant response rating” value ([2]; Rate 125 g/ha, Postemergence) was 0 and the “Plant response rating, Nutsedge” value ([2]; Rate 125 g/ha, Preemergence) was 0. The “Plant response rating, Nutsedge” value ([2]; Rate 250 g/ha, Postemergence) was 0, the “Plant response rating, Nutsedge” value ([2]; Rate 250 g/ha, Preemergence) was 0 and the “Plant response rating, Nutsedge” value ([2]; Rate 500 g/ha, Preemergence) was 0. For the same compound, the “Plant response rating, Bedstraw” value [3, 11] was 1, the “Bedstraw plant response rating” value ([3]; Rate 62 g/ha, Postemergence) was 5 and the “Bedstraw plant response rating” value ([3]; Rate 125 g/ha, Postemergence) was 8. The “Plant response rating, Bedstraw” value ([3]; Rate 125 g/ha, Preemergence) was 3, the “Plant response rating, Bedstraw” value ([3]; Rate 250 g/ha, Postemergence) was 10 and the “Plant response rating, Bedstraw” value ([3]; Rate 250 g/ha, Preemergence) was 7. For the same compound, the “Plant response rating, Bedstraw” value ([3]; Rate 500 g/ha, Postemergence) was 10, the “Plant response rating, Bedstraw” value ([3]; Rate 500 g/ha, Preemergence) was 8 and the “Plant response rating, Corn” value (corn (Zea mays); [11]) was 0. For the same compound, the “Corn plant response rating” value (corn (Zea mays); Rate 62 g/ha, Postemergence) was 1, the “Corn plant response rating” value (corn (Zea mays); Rate 125 g/ha, Postemergence) was 1 and the “Plant response rating, Corn” value (corn (Zea mays); Rate 125 g/ha, Preemergence) was 0. For the same compound, the “Plant response rating, Corn” value (corn (Zea mays); Rate 250 g/ha, Postemergence) was 1, the “Plant response rating, Corn” value (corn (Zea mays); Rate 250 g/ha, Preemergence) was 0 and the “Plant response rating, Corn” value (corn (Zea mays); Rate 500 g/ha, Postemergence) was 1. The “Plant response rating, Corn” value (corn (Zea mays); Rate 500 g/ha, Preemergence) was 0, the “Plant response rating, Rape” value (rape (Brassica napus); [11]) was 2 and the “Rape plant response rating” value (rape (Brassica napus); Rate 62 g/ha, Postemergence) was 8. For the same compound, the “Rape plant response rating” value (rape (Brassica napus); Rate 125 g/ha, Postemergence) was 8, the “Plant response rating, Rape” value (rape (Brassica napus); Rate 125 g/ha, Preemergence) was 5 and the “Plant response rating, Rape” value (rape (Brassica napus); Rate 250 g/ha, Postemergence) was 8. The “Plant response rating, Rape” value (rape (Brassica napus); Rate 250 g/ha, Preemergence) was 7, the “Plant response rating, Rape” value (rape (Brassica napus); Rate 500 g/ha, Postemergence) was 9 and the “Plant response rating, Rape” value (rape (Brassica napus); Rate 500 g/ha, Preemergence) was 7. The “Plant response rating, Wheat” value [4, 11] was 0, the “Wheat plant response rating” value ([4]; Rate 62 g/ha, Postemergence) was 1 and the “Wheat plant response rating” value ([4]; Rate 125 g/ha, Postemergence) was 1. For the same compound, the “Plant response rating, Wheat” value ([4]; Rate 125 g/ha, Preemergence) was 0, the “Plant response rating, Wheat” value ([4]; Rate 250 g/ha, Postemergence) was 1 and the “Plant response rating, Wheat” value ([4]; Rate 250 g/ha, Preemergence) was 0. The “Plant response rating, Wheat” value ([4]; Rate 500 g/ha, Postemergence) was 2, the “Plant response rating, Wheat” value ([4]; Rate 500 g/ha, Preemergence) was 1 and the “Plant response rating, Velvetleaf” value [5, 11] was 0. For the same compound, the “Velvetleaf plant response rating” value ([5]; Rate 62 g/ha, Postemergence) was 6, the “Velvetleaf plant response rating” value ([5]; Rate 125 g/ha, Postemergence) was 6 and the “Plant response rating, Velvetleaf” value ([5]; Rate 125 g/ha, Preemergence) was 2. The “Plant response rating, Velvetleaf” value ([5]; Rate 250 g/ha, Postemergence) was 7, the “Plant response rating, Velvetleaf” value ([5]; Rate 250 g/ha, Preemergence) was 4 and the “Plant response rating, Velvetleaf” value ([5]; Rate 500 g/ha, Postemergence) was 7. The “Plant response rating, Velvetleaf” value ([5]; Rate 500 g/ha, Preemergence) was 8, the “Plant response rating, Soybean” value (soybean (Glycine max); [11]) was 0 and the “Soybean plant response rating” value (soybean (Glycine max); Rate 62 g/ha, Postemergence) was 5. For the same compound, the “Soybean plant response rating” value (soybean (Glycine max); Rate 125 g/ha, Postemergence) was 5, the “Plant response rating, Soybean” value (soybean (Glycine max); Rate 125 g/ha, Preemergence) was 0 and the “Plant response rating, Soybean” value (soybean (Glycine max); Rate 250 g/ha, Postemergence) was 7. The “Plant response rating, Soybean” value (soybean (Glycine max); Rate 250 g/ha, Preemergence) was 0, the “Plant response rating, Soybean” value (soybean (Glycine max); Rate 500 g/ha, Postemergence) was 7 and the “Plant response rating, Soybean” value (soybean (Glycine max); Rate 500 g/ha, Preemergence) was 0. The “Plant response rating, Sugarbeets” value [6, 11] was 4, the “Sugarbeets plant response rating” value ([6]; Rate 62 g/ha, Postemergence) was 9 and the “Sugarbeets plant response rating” value ([6]; Rate 125 g/ha, Postemergence) was 10. For the same compound, the “Plant response rating, Sugarbeets” value ([6]; Rate 125 g/ha, Preemergence) was 8, the “Plant response rating, Sugarbeets” value ([6]; Rate 250 g/ha, Postemergence) was 10 and the “Plant response rating, Sugarbeets” value ([6]; Rate 250 g/ha, Preemergence) was 9. The “Plant response rating, Sugarbeets” value ([6]; Rate 500 g/ha, Postemergence) was 10, the “Plant response rating, Sugarbeets” value ([6]; Rate 500 g/ha, Preemergence) was 9 and the “Crabgrass plant response rating” value ([7]; Rate 62 g/ha, Postemergence) was 1. For the same compound, the “Crabgrass plant response rating” value ([7]; Rate 125 g/ha, Postemergence) was 2, the “Plant response rating, Crabgrass” value ([7]; Rate 125 g/ha, Preemergence) was 4 and the “Plant response rating, Crabgrass” value ([7]; Rate 250 g/ha, Postemergence) was 4. The “Plant response rating, Crabgrass” value ([7]; Rate 250 g/ha, Preemergence) was 6, the “Plant response rating, Crabgrass” value ([7]; Rate 500 g/ha, Postemergence) was 4 and the “Plant response rating, Crabgrass” value ([7]; Rate 500 g/ha, Preemergence) was 8. The “Plant response rating, Wild oats” value (wild oat (Avena fatua); [11]) was 0, the “Wild oats plant response rating” value (wild oat (Avena fatua); Rate 62 g/ha, Postemergence) was 1 and the “Wild oats plant response rating” value (wild oat (Avena fatua); Rate 125 g/ha, Postemergence) was 1. For the same compound, the “Plant response rating, Wild oats” value (wild oat (Avena fatua); Rate 125 g/ha, Preemergence) was 0, the “Plant response rating, Wild oats” value (wild oat (Avena fatua); Rate 250 g/ha, Postemergence) was 1 and the “Plant response rating, Wild oats” value (wild oat (Avena fatua); Rate 250 g/ha, Preemergence) was 1. For the same compound, the “Plant response rating, Wild oats” value (wild oat (Avena fatua); Rate 500 g/ha, Postemergence) was 2, the “Plant response rating, Wild oats” value (wild oat (Avena fatua); Rate 500 g/ha, Preemergence) was 1 and the “Barnyardgrass plant response rating” value [8, 12] was 1. The “Barnyardgrass plant response rating” value [8, 13] was 2, the “Plant response rating, Barnyardgrass” value ([8]; Rate 250 g/ha) was 2 and the “Plant response rating, Barnyardgrass” value ([8]; Rate 500 g/ha) was 2. For the same compound, the “Rice plant response rating” value (rice (Oryza sativa); [12]) was 1, the “Rice plant response rating” value (rice (Oryza sativa); [13]) was 1 and the “Plant response rating, Rice” value (rice (Oryza sativa); Rate 250 g/ha) was 1. For the same compound, the “Plant response rating, Rice” value (rice (Oryza sativa); Rate 500 g/ha) was 2, the “Ducksalad plant response rating” value [9, 12] was 0 and the “Ducksalad plant response rating” value [9, 13] was 2. For the same compound, the “Plant response rating, Ducksalad” value ([9]; Rate 250 g/ha) was 5, the “Plant response rating, Ducksalad” value ([9]; Rate 500 g/ha) was 7 and the “S. Flatsedge plant response rating” value [10, 12] was 5. For the same compound, the “S. Flatsedge plant response rating” value [10, 13] was 8, the “Plant response rating, S. Flatsedge” value ([10]; Rate 250 g/ha) was 9 and the “Plant response rating, S. Flatsedge” value ([10]; Rate 500 g/ha) was 9.
